Columns and labels:
Assay type in all cases: in vivo
Horned pansy = experiment: Systemic action through contact with the underground parts (saucer, capillary uptake); conditions: potted, saucer containing 40 g pure benzyl alcohol, uptake via roots
Procedure: (§1) The assays were carried out on potted plants.
(§2) Pure benzyl alcohol was used (PanReac AppliChem—ITW Reagents).
Two potted plants (Horned pansy) were each placed in a saucer containing respectively 40 g pure benzyl alcohol or 40 g water (control). By capillary action, the liquids contained in the saucer are absorbed by the earth and come into contact with the roots.
The systemic effectiveness time, the collapsing of the plant, the colour intensity and the diameter of the plant were measured as indicated in Examples 1 and 2.

Clover = experiment: Non-selective activity on herbaceous plants (spraying, potted); conditions: 4 g benzyl alcohol (200 L/Ha) in 8 g total (400 L/Ha)
Procedure: (§3) The non-selective character of benzyl alcohol was studied on 3 common varieties of herbaceous plants, two dicotyledons (dandelions and clover) and a monocotyledon (grass).
(§4) The assays were carried out on potted plants. The application of the product is carried out with a trigger spray bottle which makes it possible to spray 1 g of product per spraying, as microdroplets.
(§5) The treated plants are sprinkled with different quantities of water comprising different quantities of pure benzyl alcohol (PanReac AppliChem—ITW Reagents). The untreated (control) plants are sprinkled with the same total quantity of water only.
(§6) The plants are observed at the following times: T0, 6 h, 24 h, 48 h, 72 h, 96 h. The collapsing of the plant, the colour intensity and the diameter of the plant were measured as indicated in Example 1.

Dandelion = experiment: as above; conditions: 4 g benzyl alcohol (200 L/Ha) in 8 g total (400 L/Ha)
Procedure: as §3, §4, §5, §6

Brambles = experiment: Non-selective activity on brambles (spraying, potted); conditions: 12 g pure benzyl alcohol (600 L/Ha) in 16 g product (800 L/Ha)
Procedure: as §1
The application of the product is carried out with a trigger spray bottle which makes it possible to spray 1 g of product per spraying, as microdroplets. The treated plants are sprinkled with different quantities of water comprising different quantities of pure benzyl alcohol (PanReac AppliChem—ITW Reagents). The untreated (control) plants are sprinkled with the same total quantity of water only.
The brambles are sprinkled with: • 16 g of product (equivalent to 800 L/Ha) including 12 g pure benzyl alcohol for the treated plant (equivalent to 600 L/Ha pure benzyl alcohol), and • 16 g water for the control plants.
The collapsing of the plant, the colour intensity and the diameter of the plant were measured as indicated in Example 1.

Barley seeds [1] = experiment: Preventative activity (anti-germination), seeds on agar in Petri dish; conditions: 0.35 g sprayed (benzyl alcohol pure, 700 L/Ha; glyphosate diluted at 0.5%)
Procedure: (§7) The assays were carried out on seeds sown on a Petri dish with respectively a control mode, an assay with benzyl alcohol and an assay with glyphosate herbicide (Gallup® super 360, Barclay).
(§8) The application of the product is carried out with a trigger spray bottle which makes it possible to spray 0.35 g of product per spraying, as microdroplets.
(§9) Seeds are placed on an agar gel in Petri dishes. 16 barley seeds, 24 rapeseed seeds, 18 wheat seeds, 10 maize seeds, 10 soybean seeds are positioned for each test.
(§10) The seeds are sprinkled either with 0.35 g water (equivalent 700 L/Ha) including 0.35 g pure benzyl alcohol (PanReac AppliChem—ITW Reagents) (equivalent 700 L/Ha pure benzyl alcohol), or with 0.35 g water for the control, or with 0.35 g glyphosate diluted at 0.5% for the glyphosate test.
(§11) The plants are observed at 0 and 11 days. The percentage of germination is the percentage of germinated seeds evaluated after 11 days.

Maize seeds = experiment: as above; conditions: 0.35 g sprayed (benzyl alcohol pure, 700 L/Ha; glyphosate diluted at 0.5%)
Procedure: as §7, §8, §9, §10, §11

Rapeseed seeds = experiment: as above; conditions: 0.35 g sprayed (benzyl alcohol pure, 700 L/Ha; glyphosate diluted at 0.5%)
Procedure: as §7, §8, §9, §10, §11

Soybean seeds = experiment: as above; conditions: 0.35 g sprayed (benzyl alcohol pure, 700 L/Ha; glyphosate diluted at 0.5%)
Procedure: as §7, §8, §9, §10, §11

Wheat seeds = experiment: as above; conditions: 0.35 g sprayed (benzyl alcohol pure, 700 L/Ha; glyphosate diluted at 0.5%)
Procedure: as §7, §8, §9, §10, §11

Barley seeds [2] = experiment: Pre-emergence herbicide activity: germination of seeds sown at different depths
Procedure: as §1
Pure benzyl alcohol was used (PanReac AppliChem—ITW Reagents). The application of the product is carried out with a trigger spray bottle which makes it possible to spray 1 g of product per spraying as microdroplets.
Barley seeds (50 seeds per condition) are sown in potting soil at different depths (1, 2 and 3 cm). Then, 100% benzyl alcohol is sprayed on the earth (above the seeds) at different concentrations (10, 25, 50, 100, 200, 300 L/Ha).
The state of germination is observed at 0 and 11 days. The percentage of germination is the percentage of germinated seeds evaluated after 11 days.
The percentage of seeds germinated under each of the conditions is determined and if it is below 70%, pre-emergence use is not recommended.

Petunia = experiment: Inter-row cultivation herbicide activity: effect on untreated adjacent plant; design: key: yes: the dose and the mode of use when use in intercrop cultivation is prescribed; indicates that it is not
Procedure: as §2
Two plants (Petunia) were planted with a spacing of 20 cm. Only one of the plants is treated, either in a foliar manner or by sprinkling in different concentrations (10 L/Ha, 20 L/Ha, 50 L/Ha, 100 L/Ha, 200 L/Ha, 300 L/Ha, […], 500 L/Ha, 600 L/Ha).

OCc1ccccc1 [benzyl alcohol]
Collapsing: time to pass from a score of 5 to a score of 1 (Horned pansy): 72 h | Colour intensity: time to pass from a score of 5 to a score of 1 (Horned pansy): 48 h | Diameter of the plant: time to pass from a score of 5 to a score of 1 (Horned pansy): 96 h | Systemic effectiveness time: the whole plant is affected (Horned pansy): 48 h | Collapsing (score and time): time to pass from score 5 (T0) to score 1 (Clover): 1 to 48 h | Colour intensity (score and time): time to pass from score 5 (T0) to score 1 (Clover): 1 to 24 h | Diameter (score and time): time to pass from score 5 (T0) to score 1 (Clover): 1 to 48 h | Collapsing (score and time): time to pass from score 5 (T0) to score 1 (Dandelion): 1 to 48 h | Colour intensity (score and time): time to pass from score 5 (T0) to score 1 (Dandelion): 1 to 24 h | Diameter (score and time): time to pass from score 5 (T0) to score 1 (Dandelion): 1 to 48 h | Collapsing: time to pass from a score of 5 to a score of 1 (Brambles): 144 h | Colour intensity: time to pass from a score of 5 to a score of 1 (Brambles): 96 h | Percentage of germination at 11 days (Barley seeds [1]): 0% | Percentage of germination at 11 days (Maize seeds): 0% | Percentage of germination at 11 days (Rapeseed seeds): 0% | Percentage of germination at 11 days (Soybean seeds): 0% | Percentage of germination at 11 days (Wheat seeds): 0% | Pre-emergence use prescribed (germination of sown seeds at 11 days not below 70%) (Barley seeds [2]; seeding depth 1 cm, 50 L/Ha benzyl alcohol sprayed on the earth): yes (pre-emergence use is prescribed) | Pre-emergence use prescribed (germination of sown seeds at 11 days not below 70%) (Barley seeds [2]; seeding depth 1 cm, 100 L/Ha benzyl alcohol sprayed on the earth): no (pre-emergence use is not recommended) | Pre-emergence use prescribed (germination of sown seeds at 11 days not below 70%) (Barley seeds [2]; seeding depth 1 cm, less than 50 L/Ha benzyl alcohol sprayed on the earth): yes (pre-emergence use is prescribed) | Pre-emergence use prescribed (germination of sown seeds at 11 days not below 70%) (Barley seeds [2]; seeding depth 2 cm, 50 L/Ha benzyl alcohol sprayed on the earth): yes (pre-emergence use is prescribed) | Pre-emergence use prescribed (germination of sown seeds at 11 days not below 70%) (Barley seeds [2]; seeding depth 2 cm, 100 L/Ha benzyl alcohol sprayed on the earth): yes (pre-emergence use is prescribed) | Pre-emergence use prescribed (germination of sown seeds at 11 days not below 70%) (Barley seeds [2]; seeding depth 2 cm, less than 50 L/Ha benzyl alcohol sprayed on the earth): yes (pre-emergence use is prescribed) | Pre-emergence use prescribed (germination of sown seeds at 11 days not below 70%) (Barley seeds [2]; seeding depth 3 cm, 50 L/Ha benzyl alcohol sprayed on the earth): yes (pre-emergence use is prescribed) | Pre-emergence use prescribed (germination of sown seeds at 11 days not below 70%) (Barley seeds [2]; seeding depth 3 cm, 100 L/Ha benzyl alcohol sprayed on the earth): yes (pre-emergence use is prescribed) | Pre-emergence use prescribed (germination of sown seeds at 11 days not below 70%) (Barley seeds [2]; seeding depth 3 cm, less than 50 L/Ha benzyl alcohol sprayed on the earth): yes (pre-emergence use is prescribed) | Inter-row use possible (untreated plant at 20 cm does not collapse) (Petunia; foliar, 50 L/Ha): no | Inter-row use possible (untreated plant at 20 cm does not collapse) (Petunia; foliar, 100 L/Ha): no | Inter-row use possible (untreated plant at 20 cm does not collapse) (Petunia; foliar, 200 L/Ha): no | Inter-row use possible (untreated plant at 20 cm does not collapse) (Petunia; foliar, less than 50 L/Ha): no | Inter-row use possible (untreated plant at 20 cm does not collapse) (Petunia; sprinkling, 50 L/Ha): yes | Inter-row use possible (untreated plant at 20 cm does not collapse) (Petunia; sprinkling, 100 L/Ha): yes | Inter-row use possible (untreated plant at 20 cm does not collapse) (Petunia; sprinkling, 200 L/Ha): no | Inter-row use possible (untreated plant at 20 cm does not collapse) (Petunia; sprinkling, less than 50 L/Ha): yes
